Test results reported in US5358951A, “Angiotensin II receptor blocking 2, 3, 6 substituted quinazolinones” (American Cyanamid Company, priority 1993, dated 1994).

Test system: vasopressor response of angiotensin II
Assay: AII Challenge: antagonism of angiotensin II vasopressor response
Assay type: in vivo
Settings: for inhibition in vivo at 3 mg/kg / inhibition in vivo at 1 mg/kg: Rattus norvegicus, iv
Procedure, shortened: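 Percent antagonism is based on the systolic blood pressure rise (mmHg) to i.v. angiotensin II at 0.05 and 0.1 ug/kg. Each rat's own predose response was taken as 100%. Challenges were repeated from 30 to 300 min after i.v., i.p. or oral compound in cannulated conscious male SHR, 16-20 weeks old.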

[1] = 1 mg/kg i.v., AII 0.05 mcg/kg IV, 30 min post dose
[2] = 1 mg/kg i.v., AII 0.05 mcg/kg IV, 60 min post dose
[3] = 1 mg/kg i.v., AII 0.05 mcg/kg IV, 90 min post dose
[4] = 1 mg/kg i.v., AII 0.05 mcg/kg IV, 120 min post dose
[5] = 1 mg/kg i.v., AII 0.05 mcg/kg IV, 180 min post dose
[6] = 1 mg/kg i.v., AII 0.05 mcg/kg IV, 240 min post dose
[7] = 1 mg/kg i.v., AII 0.05 mcg/kg IV, 300 min post dose
[8] = 1 mg/kg i.v., AII 0.1 mcg/kg IV, 30 min post dose
[9] = 1 mg/kg i.v., AII 0.1 mcg/kg IV, 60 min post dose
[10] = 1 mg/kg i.v., AII 0.1 mcg/kg IV, 90 min post dose
[11] = 1 mg/kg i.v., AII 0.1 mcg/kg IV, 120 min post dose
[12] = 1 mg/kg i.v., AII 0.1 mcg/kg IV, 180 min post dose
[13] = 1 mg/kg i.v., AII 0.1 mcg/kg IV, 240 min post dose
[14] = 1 mg/kg i.v., AII 0.1 mcg/kg IV, 300 min post dose
[15] = 0.5 h, 1 mg/kg i.v., AII 0.05 mcg/kg IV, 30 min post dose
[16] = 0.5 h, 1 mg/kg i.v., AII 0.1 mcg/kg IV, 30 min post dose
[17] = 1 h, 1 mg/kg i.v., AII 0.05 mcg/kg IV, 60 min post dose
[18] = 1 h, 1 mg/kg i.v., AII 0.1 mcg/kg IV, 60 min post dose
[19] = 2 h, 1 mg/kg i.v., AII 0.05 mcg/kg IV, 120 min post dose
[20] = 2 h, 1 mg/kg i.v., AII 0.1 mcg/kg IV, 120 min post dose
[21] = 3 h, 1 mg/kg i.v., AII 0.05 mcg/kg IV, 180 min post dose
[22] = 3 h, 1 mg/kg i.v., AII 0.1 mcg/kg IV, 180 min post dose
[23] = 4 h, 1 mg/kg i.v., AII 0.05 mcg/kg IV, 240 min post dose
[24] = 5 h, 1 mg/kg i.v., AII 0.05 mcg/kg IV, 300 min post dose
[25] = 5 h, 1 mg/kg i.v., AII 0.1 mcg/kg IV, 300 min post dose
[26] = […], 1 mg/kg i.v., AII 0.05 mcg/kg IV, 90 min post dose
[27] = […], 1 mg/kg i.v., AII 0.1 mcg/kg IV, 90 min post dose

## CCCCc1nc2ccc([C@]3(C)C[C@@H]4CCC(C)(C)N4O3)cc2c(=O)n1Cc1ccc(-c2ccccc2-c2nnn[nH]2)cc1 (relative stereo) [Example 69, Trans-2-Butyl-6-(hexahydro-2,6,6-trimethylpyrrolo[1,2-b]isoxazol-2-yl)-3-[[2'-(1H-tetrazol-5-yl)[1,1'-biphenyl]-4-yl]methyl]-4(3H)-quinazolinone]
3 mg/kg I.V., AII 0.05 mcg/kg IV, 30 min post dose
  Response Average Change: 0 mmHg
3 mg/kg I.V., AII 0.05 mcg/kg IV, 60 min post dose
  Response Average Change: 2.5 mmHg
3 mg/kg I.V., AII 0.05 mcg/kg IV, 90 min post dose
  Response Average Change: 2.5 mmHg
3 mg/kg I.V., AII 0.05 mcg/kg IV, 120 min post dose
  Response Average Change: 5 mmHg
3 mg/kg I.V., AII 0.05 mcg/kg IV, 180 min post dose
  Response Average Change: 2.5 mmHg
3 mg/kg I.V., AII 0.05 mcg/kg IV, 240 min post dose
  Response Average Change: 5 mmHg
3 mg/kg I.V., AII 0.05 mcg/kg IV, 300 min post dose
  Response Average Change: 10 mmHg
3 mg/kg I.V., AII 0.1 mcg/kg IV, 30 min post dose
  Response Average Change: 0 mmHg
3 mg/kg I.V., AII 0.1 mcg/kg IV, 60 min post dose
  Response Average Change: 0 mmHg
3 mg/kg I.V., AII 0.1 mcg/kg IV, 90 min post dose
  Response Average Change: 25 mmHg
3 mg/kg I.V., AII 0.1 mcg/kg IV, 120 min post dose
  Response Average Change: 2.5 mmHg
3 mg/kg I.V., AII 0.1 mcg/kg IV, 180 min post dose
  Response Average Change: 0 mmHg
3 mg/kg I.V., AII 0.1 mcg/kg IV, 240 min post dose
  Response Average Change: 7.5 mmHg
3 mg/kg I.V., AII 0.1 mcg/kg IV, 300 min post dose
  Response Average Change: 12.5 mmHg
0.5 h, 3 mg/kg I.V., AII 0.05 mcg/kg IV, 30 min post dose
  inhibition in vivo at 3 mg/kg: 100%
0.5 h, 3 mg/kg I.V., AII 0.1 mcg/kg IV, 30 min post dose
  inhibition in vivo at 3 mg/kg: 100%
1 h, 3 mg/kg I.V., AII 0.05 mcg/kg IV, 60 min post dose
  inhibition in vivo at 3 mg/kg: 92%
1 h, 3 mg/kg I.V., AII 0.1 mcg/kg IV, 60 min post dose
  inhibition in vivo at 3 mg/kg: 100%
2 h, 3 mg/kg I.V., AII 0.05 mcg/kg IV, 120 min post dose
  inhibition in vivo at 3 mg/kg: 83%
2 h, 3 mg/kg I.V., AII 0.1 mcg/kg IV, 120 min post dose
  inhibition in vivo at 3 mg/kg: 94%
3 h, 3 mg/kg I.V., AII 0.05 mcg/kg IV, 180 min post dose
  inhibition in vivo at 3 mg/kg: 92%
3 h, 3 mg/kg I.V., AII 0.1 mcg/kg IV, 180 min post dose
  inhibition in vivo at 3 mg/kg: 100%
4 h, 3 mg/kg I.V., AII 0.05 mcg/kg IV, 240 min post dose
  inhibition in vivo at 3 mg/kg: 83%
4 h, 3 mg/kg I.V., AII 0.1 mcg/kg IV, 240 min post dose
  inhibition in vivo at 3 mg/kg: 81%
5 h, 3 mg/kg I.V., AII 0.05 mcg/kg IV, 300 min post dose
  inhibition in vivo at 3 mg/kg: 67%
5 h, 3 mg/kg I.V., AII 0.1 mcg/kg IV, 300 min post dose
  inhibition in vivo at 3 mg/kg: 69%
[…], 3 mg/kg I.V., AII 0.05 mcg/kg IV, 90 min post dose
  inhibition in vivo at 3 mg/kg: 92%
[…], 3 mg/kg I.V., AII 0.1 mcg/kg IV, 90 min post dose
  inhibition in vivo at 3 mg/kg: 94%

## CCCCc1nc2ccc([C@@]3(c4ccccc4)C[C@@H]4CCCN4O3)cc2c(=O)n1Cc1ccc(-c2ccccc2-c2nnn[nH]2)cc1 (relative stereo) [Example 70, Cis-2-butyl-6-(hexahydro-2-phenylpyrrolo-[1,2-b]isoxazol-2-yl)-3-[[2'-(1H-tetrazol-5-yl)[1,1'-biphenyl]-4-yl]methyl]-4(3H)-quinazolinone]
[1]
  Response Average Change: 23.5 mmHg
[2]
  Response Average Change: 12.5 mmHg
[3]
  Response Average Change: 12.5 mmHg
[4]
  Response Average Change: 20 mmHg
[5]
  Response Average Change: 20 mmHg
[6]
  Response Average Change: 27.5 mmHg
[7]
  Response Average Change: 30 mmHg
[8]
  Response Average Change: 30 mmHg
[9]
  Response Average Change: 17.5 mmHg
[10]
  Response Average Change: 30.5 mmHg
[11]
  Response Average Change: 26 mmHg
[12]
  Response Average Change: 30 mmHg
[13]
  Response Average Change: 30 mmHg
[14]
  Response Average Change: 37.5 mmHg
[15]
  inhibition in vivo at 1 mg/kg: 48%
[16]
  inhibition in vivo at 1 mg/kg: 37%
[17]
  inhibition in vivo at 1 mg/kg: 72%
[18]
  inhibition in vivo at 1 mg/kg: 63%
[19]
  inhibition in vivo at 1 mg/kg: 56%
[20]
  inhibition in vivo at 1 mg/kg: 45%
[21]
  inhibition in vivo at 1 mg/kg: 56%
[22]
  inhibition in vivo at 1 mg/kg: 37%
[23]
  inhibition in vivo at 1 mg/kg: 39%
4 h, 1 mg/kg i.v., AII 0.1 mcg/kg IV, 240 min post dose
  inhibition in vivo at 1 mg/kg: 37%
[24]
  inhibition in vivo at 1 mg/kg: 33%
[25]
  inhibition in vivo at 1 mg/kg: 21%
[26]
  inhibition in vivo at 1 mg/kg: 72%
[27]
  inhibition in vivo at 1 mg/kg: 36%

## CCCCc1nc2ccc([C@]3(CC)C[C@@H]4CCCN4O3)cc2c(=O)n1Cc1ccc(-c2ccccc2-c2nnn[nH]2)cc1 (relative stereo) [Example 72, Trans-2-butyl-6-(2-ethylhexahydropyrrolo[1,2-b]isoxazol-2-yl)-3-[[2'-(1H-tetrazol-5-yl)[1,1'-biphenyl]-4-yl]methyl]-4(3H)-quinazolinone]
[1]
  Response Average Change: 20 mmHg
[2]
  Response Average Change: 15 mmHg
[3]
  Response Average Change: 17.5 mmHg
[4]
  Response Average Change: 22.5 mmHg
[5]
  Response Average Change: 36.5 mmHg
[6]
  Response Average Change: 30 mmHg
[7]
  Response Average Change: 37.5 mmHg
[8]
  Response Average Change: 25.5 mmHg
[9]
  Response Average Change: 17.5 mmHg
[10]
  Response Average Change: 32.5 mmHg
[11]
  Response Average Change: 25 mmHg
[12]
  Response Average Change: 35 mmHg
[13]
  Response Average Change: 40 mmHg
[14]
  Response Average Change: 42.5 mmHg
[15]
  inhibition in vivo at 1 mg/kg: 60%
[16]
  inhibition in vivo at 1 mg/kg: 58%
[17]
  inhibition in vivo at 1 mg/kg: 70%
[18]
  inhibition in vivo at 1 mg/kg: 71%
[19]
  inhibition in vivo at 1 mg/kg: 55%
[20]
  inhibition in vivo at 1 mg/kg: 58%
[21]
  inhibition in vivo at 1 mg/kg: 27%
[22]
  inhibition in vivo at 1 mg/kg: 42%
[23]
  inhibition in vivo at 1 mg/kg: 40%
[24]
  inhibition in vivo at 1 mg/kg: 35%
[25]
  inhibition in vivo at 1 mg/kg: 29%
[26]
  inhibition in vivo at 1 mg/kg: 65%
[27]
  inhibition in vivo at 1 mg/kg: 46%
